From publication PMC11369174, “Proteome-scale characterisation of motif-based interactome rewiring by disease mutations” (Molecular Systems Biology, 2024)

Columns and labels:
CASK kinase domain [1] = molecular target: T1, CASK kinase domain (Homo sapiens, UniProt O14936); test: GenVar_HD2 ProP-PD phage selection, CASK kinase domain; conditions: bait CASK kinase domain; from NGS counts of overlapping wild-type/mutant library peptide pairs; positive = mutation enhances, negative = disrupts binding
T1 sequence (O14936 1-340): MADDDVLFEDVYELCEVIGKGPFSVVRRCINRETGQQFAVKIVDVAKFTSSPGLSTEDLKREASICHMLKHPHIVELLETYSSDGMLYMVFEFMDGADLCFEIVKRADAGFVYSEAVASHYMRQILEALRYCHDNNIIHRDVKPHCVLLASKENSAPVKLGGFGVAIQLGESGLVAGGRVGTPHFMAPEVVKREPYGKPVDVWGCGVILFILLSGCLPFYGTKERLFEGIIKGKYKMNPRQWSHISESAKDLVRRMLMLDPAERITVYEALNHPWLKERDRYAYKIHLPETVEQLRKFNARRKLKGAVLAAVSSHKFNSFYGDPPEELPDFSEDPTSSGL
Protocol: (§1) Phage display screens were performed according to previous reports (Benz et al, [2022]; Ali et al, [2020]) and for four consecutive selection rounds with five to six replicates per bait protein domain against the […] library.
(§2) On the first day, both bait (15 µg in 100 µL PBS) and control protein domains (GST and MBP; 10 µg in 100 µL PBS) were immobilised on a 96-well MaxiSorb plate (Nunc) overnight in the cold room while shaking. Additionally, a 10 mL culture of Omnimax E. coli bacteria supplemented with 10 µg/mL tetracycline was incubated overnight at 37 °C at 200 rpm.
(§3) First, protein solutions were removed from both control and bait protein domain plates and the wells were blocked with 0.5% BSA in PBS (200 µL/well) for 1 h in the cold room while shaking. After that, three Omnimax E. coli cultures were started supplemented with either 30 µg/mL kanamycin, 100 µg/mL carbenicillin and 10 µg/mL tetracycline and incubated at 37 °C and 200 rpm. The two first cultures served as a means to check for helper phage contamination (kanamycin) and phages with library phagemid contamination (carbenicillin) of the culture used for elution of the phages during selections. The tetracycline Omnimax E. coli culture was grown until OD at 600 nm reached 0.6–0.8. […]

G3BP1 NTF2 [2] = molecular target: T2, G3BP1 NTF2 (Homo sapiens, UniProt Q13283); test: GenVar_HD2 ProP-PD phage selection, G3BP1 NTF2; conditions: bait G3BP1 NTF2; from NGS counts of overlapping wild-type/mutant library peptide pairs; positive = mutation enhances, negative = disrupts binding
Protocol: as §1, §2, §3

GABARAPL1 ATG8 [3] = molecular target: T3, GABARAPL1 ATG8 (Homo sapiens, UniProt Q9H0R8); test: FP displacement assay, GABARAPL1 ATG8; assay type: binding; conditions: read-out: KD-values [µM] + SEM
Protocol: (§4) FP experiments were performed, as previously described (Kliche et al, [2021], [2023]), on an iD5 plate reader (Molecular devices) using black half-area non-binding 96-well plates (Corning). In order to calculate the FP signal in millipolarisation (mP), the FITC-labelled peptides were excited at 485 nm and the emitted light was measured at 535 nm in two different angles. For saturation experiments, a dilution series of the respective protein domains was generated (25 µL) and 10 nM fluorescein isothiocyanate (FITC)-labelled peptide (diluted in 50 mM sodium phosphate buffer pH 7.4, 0.05% Tween) were added in an end volume of 50 µL. […] For fitting the data, the buffer-corrected reduced values were plotted in GraphPad PRISM against the respective protein concentration and the KD-values were obtained by fitting against the quadratic equation (Gianni et al, [2005]).
(§5) The buffer-corrected reduced values were subsequently plotted against the logarithmic unlabelled peptide concentration to derive the IC50 values by using the sigmoidal dose-response (x is logarithmic) fit in GraphPad PRISM and calculate the KD values as described previously (Nikolovska-Coleska et al, [2004]).

MAP1LC3B ATG8 [4] = molecular target: T4, MAP1LC3B ATG8 (Homo sapiens, UniProt Q9GZQ8); test: FP displacement assay, MAP1LC3B ATG8; assay type: binding; conditions: for Kd: read-out: KD-values [µM] + SEM
Protocol: (§6) FP experiments were performed, as previously described (Kliche et al, [2021], [2023]), on an iD5 plate reader (Molecular devices) using black half-area non-binding 96-well plates (Corning). In order to calculate the FP signal in millipolarisation (mP), the FITC-labelled peptides were excited at 485 nm and the emitted light was measured at 535 nm in two different angles. For saturation experiments, a dilution series of the respective protein domains was generated (25 µL) and 10 nM fluorescein isothiocyanate (FITC)-labelled peptide (diluted in 50 mM sodium phosphate buffer pH 7.4, 0.05% Tween) were added in an end volume of 50 µL. A control experiment titrating GST was performed for the binding of the NEDD4 WW2 domain, since the GST-tagged construct was used for affinity measurements. For fitting the data, the buffer-corrected reduced values were plotted in GraphPad PRISM against the respective protein concentration and the KD-values were obtained by fitting against the quadratic equation (Gianni et al, [2005]).
as §5

GABARAPL1 ATG8 [5] = molecular target: T3, GABARAPL1 ATG8; test: GenVar_HD2 ProP-PD phage selection, GABARAPL1 ATG8; conditions: bait GABARAPL1 ATG8; from NGS counts of overlapping wild-type/mutant library peptide pairs; positive = mutation enhances, negative = disrupts binding
Protocol: as §1, §2, §3

MAP1LC3B ATG8 [6] = molecular target: T4, MAP1LC3B ATG8; test: GenVar_HD2 ProP-PD phage selection, MAP1LC3B ATG8; conditions: bait MAP1LC3B ATG8; from NGS counts of overlapping wild-type/mutant library peptide pairs; positive = mutation enhances, negative = disrupts binding
Protocol: as §1, §2
First, protein solutions were removed from both control and bait protein domain plates and the wells were blocked with 0.5% BSA in PBS (200 µL/well) for 1 h in the cold room while shaking. After that, three Omnimax E. coli cultures were started supplemented with either 30 µg/mL kanamycin, 100 µg/mL carbenicillin and 10 µg/mL tetracycline and incubated at 37 °C and 200 rpm. The two first cultures served as a means to check for helper phage contamination (kanamycin) and phages with library phagemid contamination (carbenicillin) of the culture used for elution of the phages during selections. The tetracycline Omnimax E. coli culture was grown until OD at 600 nm reached 0.6–0.8.
Naïve phage libraries were precipitated (10 µL/well of bait protein domain) by diluting the library tenfold with PBS, adding one-fourth of 20% […] and 400 mM NaCl and incubating the mixture for 15 min on ice. Subsequently, phages were spun down for 15 min at 13,000 × g and resuspended in 0.5% BSA and 0.05% Tween-20 in PBS (100 µL/well). Control domain plates were washed four times with 200 µL 0.05% Tween-20 in PBS, 100 µL of the naïve phage library (10^11 phages/mL) were added to every well and the plates incubated for 1 h in the cold room while shaking. Next, protein bait domain plates were washed four times with 0.05% Tween-20 in PBS and the phage solution from the control protein plate was transferred to the respective wells on the protein bait domain plate. […]

G3BP2 NTF2 [7] = molecular target: T5, G3BP2 NTF2 (Homo sapiens, UniProt Q9UN86); test: FP displacement assay, G3BP2 NTF2; conditions: FP displacement of FITC-N_SARS-CoV-2 (10 nM) complexed with domain (1-2x KD), 50 mM sodium phosphate pH 7.4, KD from IC50, technical triplets, n.b. = not binding within concentration range used
T5 sequence (Q9UN86 1-139): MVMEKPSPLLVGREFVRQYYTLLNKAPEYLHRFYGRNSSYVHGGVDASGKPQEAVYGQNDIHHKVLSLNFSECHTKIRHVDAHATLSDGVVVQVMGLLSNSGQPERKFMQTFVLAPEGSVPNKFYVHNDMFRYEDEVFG

G3BP2 NTF2 [8] = molecular target: T5, G3BP2 NTF2; test: GenVar_HD2 ProP-PD phage selection, G3BP2 NTF2; conditions: bait G3BP2 NTF2; from NGS counts of overlapping wild-type/mutant library peptide pairs; positive = mutation enhances, negative = disrupts binding
Protocol: as §1, §2, §3

CLTC NTD [9] = molecular target: T6, CLTC NTD (Homo sapiens, UniProt Q00610); test: GenVar_HD2 ProP-PD phage selection, CLTC NTD; conditions: bait CLTC NTD; from NGS counts of overlapping wild-type/mutant library peptide pairs; positive = mutation enhances, negative = disrupts binding
T6 sequence (Q00610 1-364): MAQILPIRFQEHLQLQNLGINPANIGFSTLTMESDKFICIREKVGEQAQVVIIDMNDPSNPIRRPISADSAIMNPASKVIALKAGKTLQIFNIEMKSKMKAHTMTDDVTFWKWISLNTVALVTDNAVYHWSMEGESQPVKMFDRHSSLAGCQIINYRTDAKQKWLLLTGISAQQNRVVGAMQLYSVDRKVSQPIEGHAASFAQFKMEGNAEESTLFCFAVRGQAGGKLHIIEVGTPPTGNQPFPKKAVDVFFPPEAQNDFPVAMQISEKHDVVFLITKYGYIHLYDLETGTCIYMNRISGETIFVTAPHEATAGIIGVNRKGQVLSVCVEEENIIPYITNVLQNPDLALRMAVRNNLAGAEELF
Protocol: as §1, §2, §3

KPNA4 ARM = test: GenVar_HD2 ProP-PD phage selection, KPNA4 ARM; assay type: binding, human; conditions: bait KPNA4 ARM; from NGS counts of overlapping wild-type/mutant library peptide pairs; positive = mutation enhances, negative = disrupts binding
KPNA4 ARM major = KPNA4 ARM major (Homo sapiens, UniProt O00629); test: FP displacement assay, KPNA4 ARM major pocket; assay type: binding
Protocol: as §6, §5

KPNA4 ARM minor = KPNA4 ARM minor (Homo sapiens, UniProt O00629); test: FP displacement assay, KPNA4 ARM minor pocket; assay type: binding
Protocol: as §6, §5

NEDD4 WW2 [10] = molecular target: T7, NEDD4 WW2 (Homo sapiens, UniProt P46934); test: FP displacement assay, NEDD4 WW2; assay type: binding; conditions: read-out: KD-values [µM] + SEM
Protocol: For saturation experiments, a dilution series of the respective protein domains was generated (25 µL) and 10 nM fluorescein isothiocyanate (FITC)-labelled peptide (diluted in 50 mM sodium phosphate buffer pH 7.4, 0.05% Tween) were added in an end volume of 50 µL. A control experiment titrating GST was performed for the binding of the NEDD4 WW2 domain, since the GST-tagged construct was used for affinity measurements.
If the raw values indicated a FITC-contamination of the unlabelled peptide, the data was excluded and a new batch of peptide was ordered for remeasuring the affinity.

NEDD4 WW2 [11] = molecular target: T7, NEDD4 WW2; test: GenVar_HD2 ProP-PD phage selection, NEDD4 WW2; conditions: bait NEDD4 WW2; from NGS counts of overlapping wild-type/mutant library peptide pairs; positive = mutation enhances, negative = disrupts binding
Protocol: as §1, §2, §3

CLTC NTD [12] = molecular target: T6, CLTC NTD; test: FP displacement assay, CLTC NTD; assay type: binding; conditions: read-out: KD-values [µM] + SEM
Protocol: as §4, §5

USP7 MATH/TRAF = USP7 MATH/TRAF (Homo sapiens, UniProt Q93009); test: FP displacement assay, USP7 MATH/TRAF; assay type: binding; conditions: read-out: KD-values [µM] + SEM
Protocol: as §4, §5

CASK kinase domain [13] = molecular target: T1, CASK kinase domain; test: FP displacement assay, CASK kinase domain; conditions: FP displacement of FITC-PER2 (10 nM) complexed with domain (1-2x KD), 50 mM sodium phosphate pH 7.4, 100 mM NaCl, KD from IC50, technical triplets, n.b. = not binding within concentration range used
Protocol: as §6, §5

G3BP1 NTF2 [14] = molecular target: T2, G3BP1 NTF2; conditions: FP displacement of FITC-N_SARS-CoV-2 (10 nM) complexed with domain (1-2x KD), 50 mM sodium phosphate pH 7.4, KD from IC50, technical triplets, n.b. = not binding within concentration range used

T7 sequence (P46934 765-803 limits assumed): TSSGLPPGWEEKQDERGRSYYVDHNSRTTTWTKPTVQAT
T2 sequence (Q13283 1-139): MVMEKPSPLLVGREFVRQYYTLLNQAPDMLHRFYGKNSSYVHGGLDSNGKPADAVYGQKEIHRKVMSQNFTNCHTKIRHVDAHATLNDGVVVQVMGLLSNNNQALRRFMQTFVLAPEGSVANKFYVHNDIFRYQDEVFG
T3 sequence (Q9H0R8 2-115): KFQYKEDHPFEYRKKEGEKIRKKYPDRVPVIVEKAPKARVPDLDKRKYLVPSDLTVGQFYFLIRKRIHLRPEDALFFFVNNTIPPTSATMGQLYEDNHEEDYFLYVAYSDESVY
Sequence of KPNA4 ARM minor (O00629 68-487): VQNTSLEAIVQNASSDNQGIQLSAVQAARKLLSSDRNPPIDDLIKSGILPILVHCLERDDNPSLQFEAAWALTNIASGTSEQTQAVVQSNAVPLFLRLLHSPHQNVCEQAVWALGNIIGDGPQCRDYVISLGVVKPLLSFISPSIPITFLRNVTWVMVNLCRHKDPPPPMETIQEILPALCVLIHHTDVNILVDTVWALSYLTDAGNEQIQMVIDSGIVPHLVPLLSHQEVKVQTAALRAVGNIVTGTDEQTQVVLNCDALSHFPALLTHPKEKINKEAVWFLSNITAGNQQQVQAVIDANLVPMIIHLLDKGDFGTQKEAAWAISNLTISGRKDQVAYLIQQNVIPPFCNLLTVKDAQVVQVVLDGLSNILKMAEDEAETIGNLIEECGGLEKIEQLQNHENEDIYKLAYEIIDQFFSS
Sequence of KPNA4 ARM major (O00629 68-487): as above
Sequence of USP7 MATH/TRAF (Q93009 53-206): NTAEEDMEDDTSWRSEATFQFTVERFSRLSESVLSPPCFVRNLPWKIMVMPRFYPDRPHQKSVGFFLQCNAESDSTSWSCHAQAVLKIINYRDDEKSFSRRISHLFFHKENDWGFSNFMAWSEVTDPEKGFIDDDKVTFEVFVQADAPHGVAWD

## CSCC[C@H](NC(C)=O)C(=O)N[C@@H](CO)C(=O)N[C@@H](CC(=O)O)C(=O)N[C@@H](CC(C)C)C(=O)N[C@@H](Cc1c[nH]c2ccccc12)C(=O)N[C@H](C(=O)N1CCC[C@H]1C(=O)N[C@@H](CC(N)=O)C(=O)N[C@@H](CO)C(=O)N[C@@H](C)C(=O)N[C@@H](CO)C(=O)NCC(=O)N[C@@H](CCC(N)=O)C(=O)N[C@@H](CC(=O)O)C(=O)N1CCC[C@H]1C(=O)NCC(N)=O)C(C)C [FANCA_1-16 S4L]
CASK kinase domain [1]
  Mutation enrichment score: 6

## CC(=O)N[C@@H](CCC(=O)O)C(=O)N[C@@H](Cc1ccccc1)C(=O)N1CCC[C@H]1C(=O)N[C@H](C(=O)N1CCC[C@H]1C(=O)N[C@@H](Cc1ccccc1)C(=O)N[C@@H](Cc1ccccc1)C(=O)NCC(=O)N[C@@H](CO)C(=O)N[C@@H](CC(N)=O)C(=O)N[C@@H](CC(=O)O)C(=O)N[C@@H](Cc1ccc(O)cc1)C(=O)N[C@@H](CC(C)C)C(=O)N[C@@H](Cc1c[nH]c2ccccc12)C(=O)N[C@H](C(=O)N[C@@H](Cc1c[nH]cn1)C(N)=O)[C@@H](C)O)C(C)C [NSD1_1793-1808 L1797P]
G3BP1 NTF2 [2]
  Mutation enrichment score: −7.4

## Ac-DKDEWQFLDQNEDAFE-NH2 [BUB1_486-501 S492F]
GABARAPL1 ATG8 [3]
  Kd: < 0.3 µM
MAP1LC3B ATG8 [4]; from FP displacement KD values, MAP1LC3B ATG8
  increase in affinity, mutant vs wild-type peptide: four-fold increase in affinity
MAP1LC3B ATG8 [4]
  Kd: 1.6 ± 0.1 µM
GABARAPL1 ATG8 [5]
  Mutation enrichment score: 16
MAP1LC3B ATG8 [6]
  Mutation enrichment score: 12

## Ac-DKDEWQSLDQNEDAFE-NH2 [BUB1_486-501 wild-type]
GABARAPL1 ATG8 [3]
  Kd: 5.5 ± 0.7 µM
MAP1LC3B ATG8 [4]
  Kd: 7 ± 1 µM

## Ac-DLLTCGQAQMNFPY-NH2 [BCL11A_44-56 wild-type]
G3BP2 NTF2 [7]
  KD-values [µM] + SEM: n.b.

## Ac-DLLTFGQAQMNFPY-NH2 [BCL11A_44-56 C48F]
G3BP2 NTF2 [8]
  Mutation enrichment score: 10
CLTC NTD [9]
  Mutation enrichment score: 12

## Ac-PELWVAHRTAQHLSAT-NH2 [ZNF526_152-167 L160T]
KPNA4 ARM
  Mutation enrichment score: −6.4
KPNA4 ARM major; major pocket, FP displacement of FITC-MYC (10 nM) complexed with domain (1-2x KD), 50 mM sodium phosphate pH 7.4, KD from IC50, ± SEM, n.b. = not binding within concentration range used
  KD-values [µM] + SEM: n.b.
KPNA4 ARM minor; read-out: KD-values [µM] + SEM
  Kd: 395 ± 10 µM

## Ac-PIPGTPPRNYDSLRLQ-NH2 [SCNN1B_611-626 P618R]
NEDD4 WW2 [10]
  Kd: 603 ± 73 µM
NEDD4 WW2 [11]
  Mutation enrichment score: −16

## Ac-PIPGTRPPNYDSLRLQ-NH2 [SCNN1B_611-626 P616R]
NEDD4 WW2 [10]
  Kd: 80 ± 7 µM
NEDD4 WW2 [11]
  Mutation enrichment score: −12

## Ac-QQSYLDFGIHSGATTT-NH2 [CTNNB1_27-42 S33F]
G3BP1 NTF2 [2]
  Mutation enrichment score: 9

## Ac-SGNLIDLCGNQGLPY-NH2 [MITF_258-271 Y265C]
CLTC NTD [12]
  Kd: 206 ± 13 µM
CLTC NTD [9]
  Mutation enrichment score: −9.8

## Ac-SGNLIDLYGNQGLPY-NH2 [MITF_258-271 wild-type]
CLTC NTD [12]
  Kd: 191 ± 27 µM

## Ac-YISSSSTSTMPNSSQSS-NH2 [CHK2_38-53 wild-type]
USP7 MATH/TRAF
  Kd: 3.1 ± 0.2 µM

## Ac-YLLDGPPNPERAKLSS-NH2 [CREBBP_5-19 K13E]
KPNA4 ARM
  Mutation enrichment score: −6
KPNA4 ARM major; read-out: KD-values [µM] + SEM
  Kd: 860 ± 20 µM
KPNA4 ARM minor; minor pocket, FP displacement of FITC-NCOR2 (10 nM) complexed with domain (1-2x KD), 50 mM sodium phosphate pH 7.4, KD from IC50, technical triplets, ± SEM, n.b. = not binding within concentration range used
  KD-values [µM] + SEM: n.b.

## Ac-YSGDTSPWHLSNVSST-NH2 [MAPT_717-731 R723W]
CASK kinase domain [1]
  Mutation enrichment score: 12

## H3COC-MSD(S/L)WVPNSASGQDPG-NH2 [FANCA_1-16 wild-type, wild-type FANCA peptide, residues 1-16]
CASK kinase domain [13]
  KD-values [µM] + SEM: n.b.

## H3COC-QQSYLD(S/F)GIHSGATTT-NH2 [CTNNB1_27-42 wild-type]
G3BP1 NTF2 [14]
  KD-values [µM] + SEM: no binding and n.b.

## H3COC-YSGDTSP(R/W)HLSNVSST-NH2 [MAPT_717-731 wild-type, wild-type MAPT peptide, residues 717-731]
CASK kinase domain [13]
  KD-values [µM] + SEM: no binding and n.b.
